Consider two compounds from article PMC9917735, “Optimization of the Hemolysis Assay for the Assessment of Cytotoxicity” (International Journal of Molecular Sciences, 2023).

One series concerns human whole blood. The settings on record: human whole blood, 60 min 37 °C; for Calculated hemolysis ratio: peptides 100 μM, neg. PBS, 3 x 2 replicates.
The conditions of series [1]: cited from earlier work. The method, then:
OD measurements of human whole blood treated with hemolyzing agents or AMPs at 405 nm (A), 530 nm (B), and 570 nm (C) were recorded (Figure 6) and HRs calculated (Table 5). For comparison, we also included the two previously well-characterized AMPs melittin and polymyxin B, which exert high and low cytotoxicity, respectively. […] From 530 and 570 nm measurements, the expected conce ...

In series [2] the test system is washed human erythrocytes. The series can be described thus: Hemolysis assay, washed human erythrocytes. The settings on record: peptides 100 μM, 60 min 37 °C, pos. 10% Triton X-100, neg. PBS, 3 x 2 replicates.
Procedure: (§1) Blood is drawn from a human or an animal, and next, the washed erythrocytes are incubated together with the compound or material under investigation. If the compound causes hemolysis, hemoglobin (along with other cellular constituents) will be released into the supernatant.
(§2) All blood was collected in Lithium Heparin tubes 4 mL (Greiner Bio-One, Kremsmünster, Austria) or Coagulation sodium citrate 3.2% tubes 3 mL (Greiner Bio-One).
(§3) These three peptides were synthesized by Genscript Inc. (Piscataway, NJ, USA), and stock solutions of 1 mg/mL were made from the purchased powders. […] All peptides were diluted to yield a 100 μM final concentration in the hemolysis assays.
(§4) Triton X-100 (T8787) and Tween-20 (P2287) detergents were purchased from Sigma Aldrich and diluted to obtain 10% stock solutions by weighing (w/v). A sodium Dodecyl Sulfate (SDS) 10% solution was purchased from Invitrogen (Waltham, MA, USA, 15553027). All subsequent dilutions annotated in figures were made from these stocks.
(§5) As soon as possible after phlebotomy, the blood samples were centrifuged at 1700× g for 5 min. The supernatant was removed by aspiration and 2 mL of PBS pH 7 was added. The washing step was repeated three times or until the supernatant was clear. After final aspiration, the remaining pellet was diluted 1:100 in PBS pH 7 to obtain a 1% erythrocyte suspension (or 1:100, 1:50, and 1:20 for assays testing the effect of erythrocyte concentration). For experiments using whole blood, the washing steps were not performed, but downstream experimentation was identical. For experiments performed with 96-well plates, 50 μL of test compound, water, or detergent were mixed with 50 μL of blood sample (1% erythrocyte suspension or whole blood). For experiments using larger volumes, 250 μL of test compound, water, or detergent were mixed with 250 μL blood sample in an Eppendorf tube. Samples were subsequently incubated at 37 °C for 60 min (or 15, 30, 60, 90, or 120 min for assays evaluating the effect of incubation time). After incubation, the plates/tubes were centrifuged at 1700× g for 5 min, and then 50 μL of the supernatants were transferred to transparent, flat-bottom 96-well plates (Anicrin, A013418). Finally, absorption was measured at 405, 530, and 570 nm in a Victor Nivo Multimode microplate reader (Perkin Elmer, Waltham, MA, USA).
Where [3] appears, read: OD 405 nm (signal saturated), pos. 10% SDS.
[4] abbreviates: OD 570 nm, pos. 10% Triton X-100 (table title; text says 10% SDS).

Read-outs that look alike come from different tables or passages of the source.

Procedure for human whole blood: as §1, §2, §3, §4, §5

In the case of Polymyxin B [PMB, reference compound], the Calculated hemolysis ratio is recorded as 3.1 ± 1.1% in the series on human whole blood (setting [3]); 3 ± 2.4% in the series on human whole blood (OD 530 nm, pos. 10% SDS); 4.5 ± 1.8% in the series with human whole blood (setting [4]). Further, the “Cytotoxicity (qualitative)” value in series [1] is reported as “low”.
For `CC[C@H](C)[C@H](NC(=O)CN)C(=O)NCC(=O)N[C@@H](C)C(=O)N[C@H](C(=O)N[C@@H](CC(C)C)C(=O)N[C@@H](CCCCN)C(=O)N[C@H](C(=O)N[C@@H](CC(C)C)C(=O)N[C@H](C(=O)N[C@H](C(=O)NCC(=O)N[C@@H](CC(C)C)C(=O)N1CCC[C@H]1C(=O)N[C@@H](C)C(=O)N[C@@H](CC(C)C)C(=O)N[C@H](C(=O)N[C@@H](CO)C(=O)N[C@@H](Cc1c[nH]c2ccccc12)C(=O)N[C@H](C(=O)N[C@@H](CCCCN)C(=O)N[C@@H](CCCNC(=N)N)C(=O)N[C@@H](CCCCN)C(=O)N[C@@H](CCCNC(=N)N)C(=O)N[C@@H](CCC(N)=O)C(=O)N[C@@H](CCC(N)=O)C(N)=O)[C@@H](C)CC)[C@@H](C)CC)[C@@H](C)O)[C@@H](C)O)C(C)C)C(C)C` [Melittin, reference compound], the Calculated hemolysis ratio in series [2] (1% washed human erythrocytes, OD 530 nm) is reported as 78.4 ± 4.3%; in series [2] (1% washed human erythrocytes, OD 570 nm), 79.8 ± 8.2%; in series [2] (Table 6: 1% washed human erythrocytes, OD 405 nm), 84.4 ± 8.1%; in the series on human whole blood (setting [3]), 98.3 ± 1.4%; in the series on human whole blood (OD 530 nm, pos. 10% SDS) it was 36.6 ± 8.7%; with human whole blood (setting [4]), 54 ± 15.5%. In addition, the “Blood clotting in whole blood” value in the series with human whole blood (melittin 100 μM) is “clotting effect was also observed”. For the same compound, in series [1] (previously well-characterized AMPs, ref [9],[33]), the “Cytotoxicity (qualitative)” value was “high”.
